Source: patent US8778964B2, “Hydroxy-substituted imidazo[1,2-a]-pyridinecarboxamides and their use” (Bayer Pharma Aktiengesellschaft, priority 2012, dated 2014)
Counter-ions that a name gives are not always drawn.

System: recombinant guanylate cyclase reporter cell line
Assay: Action on recombinant guanylate cyclase reporter cell line (MEC)
Assay type: cell-based
Settings: in some cases mean values obtained from individual determinations
Experimental: B-2. Action on Recombinant Guanylate Cyclase Reporter Cell Line
The cellular action of the compounds according to the invention is determined on a recombinant guanylate cyclase reporter cell line, as described in F. Wunder et al., Anal. Biochem. 339, 104-112 (2005).
Representative values (MEC=minimal effective concentration) for the compounds according to the invention are shown in the following table (in some cases as mean values obtained from individual determinations): […]

| SMILES | minimal effective concentration [µM] |
| --- | --- |
| CCOCC(CO)NC(=O)c1c(C)nc2c(OCc3c(F)cccc3F)cccn12 (racemic) [Example 160, rac-8-[(2,6-Difluorobenzyl)oxy]-N-(1-ethoxy-3-hydroxypropan-2-yl)-2-methylimidazo[1,2-a]-pyridine-3-carboxamide] | 0.3 |
| Cc1nc2c(OCc3c(F)cccc3F)cccn2c1C(=O)NCCC1(O)CCCCC1 [Example 116, 8-[(2,6-difluorobenzyl)oxy]-N-[2-(1-hydroxycyclohexyl)ethyl]-2-methylimidazo[1,2-a]pyridine-3-carboxamide] | 0.3 |
| Cc1nc2c(OCc3c(F)cccc3F)cccn2c1C(=O)NC(CCCC(F)(F)F)C(C)(C)O (single isomer, unassigned; ent-8) [Example 156, ent-8-[(2,6-Difluorobenzyl)oxy]-2-methyl-N-(7,7,7-trifluoro-2-hydroxy-2-methylheptan-3-yl)-imidazo[1,2-a]pyridine-3-carboxamide (enantiomer B)] | 0.03 |
| Cc1nc2c(OCc3ccccc3Cl)cccn2c1C(=O)NC(CO)CO [Example 50, 8-[(2-chlorobenzyl)oxy]-N-(1,3-dihydroxypropan-2-yl)-2-methylimidazo[1,2-a]pyridine-3-carboxamide] | 6.5 |
| Cc1nc2c(OCc3c(F)cccc3F)cccn2c1C(=O)N[C@H]1CCC[C@@H]1O [Example 19, 8-[(2,6-difluorobenzyl)oxy]-N-[(1S,2S)-2-hydroxycyclopentyl]-2-methylimidazo[1,2-a]-pyridine-3-carboxamide] | 1 |
| Cc1nc2c(OCC3CCCCC3)cccn2c1C(=O)NCCO [Example 76, 8-(cyclohexylmethoxy)-N-(2-hydroxyethyl)-2-methylimidazo[1,2-a]pyridine-3-carboxamide formate] | 0.3 |
| CCc1nc2c(OCC3CCCCC3)cccn2c1C(=O)N[C@H](C)CO [Example 55, 8-(Cyclohexylmethoxy)-2-ethyl-N-[(2R)-1-hydroxypropan-2-yl]imidazo[1,2-a]pyridine-3-carboxamide formic acid salt] | 0.1 |
| CCCC[C@H](CO)NC(=O)c1c(C)nc2c(OCc3c(F)cccc3F)c(F)ccn12 [Example 177, 8-[(2,6-Difluorobenzyl)oxy]-7-fluoro-N-[(2R)-1-hydroxyhexan-2-yl]-2-methylimidazo[1,2-a]-pyridine-3-carboxamide] | 1 |
| Cc1nc2c(OCC3CCCCC3)cccn2c1C(=O)N[C@H](CO)CC(C)C [Example 95, 8-(cyclohexylmethoxy)-N-[(2S)-1-hydroxy-4-methylpentan-2-yl]-2-methylimidazo[1,2-a]pyridine-3-carboxamide] | 3 |
| CC[C@@H](CO)NC(=O)c1c(C)nc2c(OCC3CCCCC3)cccn12 [Example 88, 8-(cyclohexylmethoxy)-N-[(2S)-1-hydroxybutan-2-yl]-2-methylimidazo[1,2-a]pyridine-3-carboxamide] | 1 |
| Cc1nc2c(OCC3CCCCC3)cccn2c1C(=O)N[C@@H]1CCC[C@@H]1O (relative stereo) [Example 81, 8-(cyclohexylmethoxy)-N-[cis-2-hydroxycyclopentyl]-2-methylimidazo[1,2-a]-pyridine-3-carboxamide] | 0.65 |
| Cc1nc2c(OCc3ccccc3)cccn2c1C(=O)N[C@@H](C)CO [Example 46, 8-(Benzyloxy)-N-[(2S)-1-hydroxypropan-2-yl]-2-methylimidazo[1,2-a]pyridine-3-carboxamide] | 3 |
| Cc1nc2c(OCC3CCCCC3)cccn2c1C(=O)NC1(CO)CCCC1 [Example 92, 8-(cyclohexylmethoxy)-N-[1-(hydroxymethyl)cyclopentyl]-2-methylimidazo[1,2-a]pyridine-3-carboxamide] | 1 |
| Cc1nc2c(OCC3CCC3)cccn2c1C(=O)NCCC1(O)CCCC1 [Example 97, 8-(cyclobutylmethoxy)-N-[2-(1-hydroxycyclopentyl)ethyl]-2-methylimidazo[1,2-a]pyridine-3-carboxamide] | 1 |
